# Measured values: patent publication US10000498B2, “Selective proton coupled folate transporter and folate receptor, and GARFTase inhibitor compounds and methods of using the same” (Duquesne University of the Holy Spirit, priority 2008, dated 2018)
# Assays:
# hRFC = target: T1, hRFC (Homo sapiens, UniProt P41440); test: Inhibition of [3H]MTX uptake by RFC in PC43 cells; assay type: cell-based; details: pH 7.2-7.4; not shown
# T1 construct: expressed in transfected cells; host or cells: PC43-10 (CHO subline derived from RFC- and FR-null R2 cells)
# T1 sequence (P41440 1-591): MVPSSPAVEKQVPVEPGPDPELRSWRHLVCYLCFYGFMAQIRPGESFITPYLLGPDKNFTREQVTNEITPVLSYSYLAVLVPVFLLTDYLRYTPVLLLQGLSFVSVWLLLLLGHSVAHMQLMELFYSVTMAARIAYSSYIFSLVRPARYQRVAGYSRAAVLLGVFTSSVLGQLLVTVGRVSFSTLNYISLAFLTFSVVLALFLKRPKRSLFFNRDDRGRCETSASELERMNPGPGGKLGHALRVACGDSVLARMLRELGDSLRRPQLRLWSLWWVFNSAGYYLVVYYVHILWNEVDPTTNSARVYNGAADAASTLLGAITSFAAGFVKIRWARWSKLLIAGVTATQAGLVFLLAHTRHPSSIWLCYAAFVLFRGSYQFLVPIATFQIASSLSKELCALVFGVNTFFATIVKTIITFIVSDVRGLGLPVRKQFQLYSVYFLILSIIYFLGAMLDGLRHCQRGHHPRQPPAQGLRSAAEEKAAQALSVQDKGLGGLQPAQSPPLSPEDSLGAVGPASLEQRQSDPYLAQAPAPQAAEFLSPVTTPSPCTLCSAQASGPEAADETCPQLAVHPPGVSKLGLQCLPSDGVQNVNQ
# hPCFT = target: T2, hPCFT (Homo sapiens, UniProt Q96NT5); test: Inhibition of [3H]MTX transport by hPCFT; assay type: cell-based; details: initial studies over a range of pH values
# T2 construct: expressed in transfected cells
# T2 sequence (Q96NT5 1-459): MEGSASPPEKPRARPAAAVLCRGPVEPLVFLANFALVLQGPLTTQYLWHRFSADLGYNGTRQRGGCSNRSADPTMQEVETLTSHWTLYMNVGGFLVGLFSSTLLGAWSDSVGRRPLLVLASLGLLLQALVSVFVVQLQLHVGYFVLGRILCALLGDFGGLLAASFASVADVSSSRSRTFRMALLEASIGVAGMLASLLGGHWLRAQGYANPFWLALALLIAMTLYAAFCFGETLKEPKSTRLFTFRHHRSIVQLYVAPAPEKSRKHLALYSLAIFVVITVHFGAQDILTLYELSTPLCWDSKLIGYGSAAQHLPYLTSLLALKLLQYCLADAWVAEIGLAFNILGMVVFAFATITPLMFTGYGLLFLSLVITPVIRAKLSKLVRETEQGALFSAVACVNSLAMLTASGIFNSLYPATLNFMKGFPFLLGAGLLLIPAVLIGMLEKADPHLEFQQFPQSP
structure (smiles),measurement,setting,value
"Nc1nc2[nH]c(CCCCc3ccc(C(=O)N[C@@H](CCC(=O)O)C(=O)O)s3)cc2c(=O)[nH]1 [AAG154353, (S)-2-({5-[4-(2-amino-4-oxo-4,7-dihydro-3H-pyrrolo[2,3-d]pyrimidin-6-yl)-butyl]thiophene-2-carbonyl}-amino)-pentanedioic acid]",Inhibition of [3H]MTX transport from hRFC in pC43-10 cells (in words),hRFC,negligible inhibition
same,Increased inhibition of hPCFT transport at acid (pH<7) over neutral (pH>7) conditions,hPCFT,2-3 fold
